Measurements reported in PMC5218480 (PLoS ONE, 2017).

System: MV-4-11 cells
Experiment: Gene expression microarray analysis (Affymetrix PrimeView) and GSEA
Format: cell-based, human
Parameters: RFU PODN (11730768_x_at) / Fold change /veh PODN (11730768_x_at) / RFU LINC00158 (11744669_a_at) / Fold change /veh LINC00158 (11744669_a_at) / RFU DUSP10 (11751237_a_at) / Fold change /veh DUSP10 (11751237_a_at) / RFU ID3 (11757404_x_at) / Fold change /veh ID3 (11757404_x_at) / RFU PLEKHG5 (11737974_s_at) / Fold change /veh PLEKHG5 (11737974_s_at) / RFU LRRC4B (11730491_at) / Fold change /veh LRRC4B (11730491_at) / RFU GIMAP4 (11747438_a_at) / Fold change /veh GIMAP4 (11747438_a_at) / RFU KRT8 (11758183_x_at) / Fold change /veh KRT8 (11758183_x_at) / RFU CNN1 (11734310_a_at) / Fold change /veh CNN1 (11734310_a_at) / RFU VPS37D (11726825_at) / Fold change /veh VPS37D (11726825_at) / RFU C10orf10 (11716522_x_at) / Fold change /veh C10orf10 (11716522_x_at) / RFU KIR2DL2 /// KIR2DL4 /// KIR2DL5A /// KIR2DL5B /// KIR2DS1 /// KIR2DS2 /// KIR2DS3 /// KIR2DS4 /// KIR3DL3 /// KIR3DL3 /// KIR3DS1 (11738374_at) / Fold change /veh KIR2DL2 /// KIR2DL4 /// KIR2DL5A /// KIR2DL5B /// KIR2DS1 /// KIR2DS2 /// KIR2DS3 /// KIR2DS4 /// KIR3DL3 /// KIR3DL3 /// KIR3DS1 (11738374_at) / RFU C1QL1 (11718748_at) / Fold change /veh C1QL1 (11718748_at) / RFU TMPRSS4 (11747572_a_at) / Fold change /veh TMPRSS4 (11747572_a_at) / RFU HAMP (11756126_x_at) / Fold change /veh HAMP (11756126_x_at) / RFU RNFT2 (11725882_a_at) / Fold change /veh RNFT2 (11725882_a_at) / RFU NR4A2 (11747474_a_at) / Fold change /veh NR4A2 (11747474_a_at) / RFU ABCC12 (11746883_a_at) / Fold change /veh ABCC12 (11746883_a_at) / RFU TMEM136 (11760407_x_at) / Fold change /veh TMEM136 (11760407_x_at) / RFU CLDN22 /// WWC2 (11732394_at) / Fold change /veh CLDN22 /// WWC2 (11732394_at) / RFU HLA-DPB1 (11760878_x_at) / Fold change /veh HLA-DPB1 (11760878_x_at) / RFU SPINT1 (11716480_a_at) / Fold change /veh SPINT1 (11716480_a_at) / RFU GAP43 (11754022_s_at) / Fold change /veh GAP43 (11754022_s_at) / RFU A4GNT (11735810_at) / Fold change /veh A4GNT (11735810_at) / RFU PRB3 (11715151_x_at) / Fold change /veh PRB3 (11715151_x_at) / RFU TUBB4B (11761932_at) / Fold change /veh TUBB4B (11761932_at) / RFU CAPN14 (11732068_a_at) / Fold change /veh CAPN14 (11732068_a_at) / RFU TMCC2 (11721928_a_at) / Fold change /veh TMCC2 (11721928_a_at) / RFU IRGQ (11745062_a_at) / Fold change /veh IRGQ (11745062_a_at) / RFU FAM174B (11720279_a_at) / Fold change /veh FAM174B (11720279_a_at) / RFU TMPRSS4 (11748680_a_at) / Fold change /veh TMPRSS4 (11748680_a_at) / RFU FAM212B (11763350_a_at) / Fold change /veh FAM212B (11763350_a_at) / RFU PLEKHG5 (11743358_a_at) / Fold change /veh PLEKHG5 (11743358_a_at) / RFU ZSCAN30 (11745921_a_at) / Fold change /veh ZSCAN30 (11745921_a_at) / RFU CMKLR1 (11741424_a_at) / Fold change /veh CMKLR1 (11741424_a_at) / RFU LOC101060620 /// MAPK8IP1 (11723275_at) / Fold change /veh LOC101060620 /// MAPK8IP1 (11723275_at) / RFU SPTSSB (11747773_x_at) / Fold change /veh SPTSSB (11747773_x_at) / RFU PRSS12 (11739890_at) / Fold change /veh PRSS12 (11739890_at) / RFU BIN1 (11741810_x_at) / Fold change /veh BIN1 (11741810_x_at) / RFU WNT11 (11732464_a_at) / Fold change /veh WNT11 (11732464_a_at) / RFU C10orf10 (11716521_a_at) / Fold change /veh C10orf10 (11716521_a_at) / RFU C5orf56 (11738089_at) / Fold change /veh C5orf56 (11738089_at) / RFU CYB561 (11721691_x_at) / Fold change /veh CYB561 (11721691_x_at) / RFU ANKRD19P (11752326_a_at) / Fold change /veh ANKRD19P (11752326_a_at) / RFU OR2T12 /// OR2T33 /// OR2T8 (11738714_s_at) / Fold change /veh OR2T12 /// OR2T33 /// OR2T8 (11738714_s_at) / RFU VCAN (11748164_a_at) / Fold change /veh VCAN (11748164_a_at) / RFU JSRP1 (11732532_at) / Fold change /veh JSRP1 (11732532_at) / RFU KRTAP10-11 (11738290_x_at) / Fold change /veh KRTAP10-11 (11738290_x_at) / RFU MYO3A (11730013_a_at) / Fold change /veh MYO3A (11730013_a_at) / RFU EBF3 (11725865_a_at) / Fold change /veh EBF3 (11725865_a_at) / RFU CAMK2N1 (11719241_x_at) / Fold change /veh CAMK2N1 (11719241_x_at) / RFU C5orf56 (11738088_a_at) / Fold change /veh C5orf56 (11738088_a_at) / RFU OLFML3 (11715873_a_at) / Fold change /veh OLFML3 (11715873_a_at) / RFU LOC100653217 /// NTM (11731650_a_at) / Fold change /veh LOC100653217 /// NTM (11731650_a_at) / RFU MAPK11 (11762145_a_at) / Fold change /veh MAPK11 (11762145_a_at) / RFU FIZ1 (11724087_x_at) / Fold change /veh FIZ1 (11724087_x_at) / RFU OASL (11726364_x_at) / Fold change /veh OASL (11726364_x_at) / RFU SOX15 (11748057_x_at) / Fold change /veh SOX15 (11748057_x_at) / RFU CD79A (11719716_a_at) / Fold change /veh CD79A (11719716_a_at) / RFU HIST1H1D (11736915_at) / Fold change /veh HIST1H1D (11736915_at) / RFU CASKIN2 (11723855_a_at) / Fold change /veh CASKIN2 (11723855_a_at) / RFU LOC730098 (11760151_x_at) / Fold change /veh LOC730098 (11760151_x_at) / RFU OR4N2 (11742367_at) / Fold change /veh OR4N2 (11742367_at) / RFU PRRT2 (11749266_a_at) / Fold change /veh PRRT2 (11749266_a_at) / RFU SNX32 (11753110_a_at) / Fold change /veh SNX32 (11753110_a_at) / RFU CDHR5 (11726645_a_at) / Fold change /veh CDHR5 (11726645_a_at) / RFU RCAN1 (11760418_a_at) / Fold change /veh RCAN1 (11760418_a_at) / RFU FAM167A (11723789_a_at) / Fold change /veh FAM167A (11723789_a_at) / RFU FAM26E (11764081_at) / Fold change /veh FAM26E (11764081_at) / RFU ISYNA1 (11749810_s_at) / Fold change /veh ISYNA1 (11749810_s_at) / RFU ACY1 (11761880_at) / Fold change /veh ACY1 (11761880_at) / RFU 11764098_at / Fold change /veh 11764098_at / RFU SAMD14 (11745864_x_at) / Fold change /veh SAMD14 (11745864_x_at) / RFU NPB (11741838_a_at) / Fold change /veh NPB (11741838_a_at) / RFU TMPRSS6 (11731388_a_at) / Fold change /veh TMPRSS6 (11731388_a_at) / RFU KRTAP10-2 (11738614_at) / Fold change /veh KRTAP10-2 (11738614_at) / RFU ARHGAP8 /// PRR5-ARHGAP8 (11727945_x_at) / Fold change /veh ARHGAP8 /// PRR5-ARHGAP8 (11727945_x_at) / RFU KRTAP5-7 /// NADSYN1 (11734609_at) / Fold change /veh KRTAP5-7 /// NADSYN1 (11734609_at) / RFU RASL12 (11751679_a_at) / Fold change /veh RASL12 (11751679_a_at) / RFU CDKN2B (11736163_a_at) / Fold change /veh CDKN2B (11736163_a_at) / RFU PRF1 (11729649_at) / Fold change /veh PRF1 (11729649_at) / RFU, ZNF638 /// ZNF638-IT1 / Fold change vs veh, ZNF638 /// ZNF638-IT1 / RFU, PANK3 / Fold change vs veh, PANK3 / RFU, SH3YL1 / Fold change vs veh, SH3YL1 / RFU, ZEB2 / Fold change vs veh, ZEB2 / RFU, NRIP1 / Fold change vs veh, NRIP1 / RFU, PTTG1IP / Fold change vs veh, PTTG1IP / RFU, CAPN2 / Fold change vs veh, CAPN2 / RFU, MED14 / Fold change vs veh, MED14 / RFU, SNORA58 / Fold change vs veh, SNORA58 / RFU, C1orf63 / Fold change vs veh, C1orf63 / RFU, LRRFIP1 / Fold change vs veh, LRRFIP1 / RFU, NDUFAF7 / Fold change vs veh, NDUFAF7 / RFU, SLC12A2 / Fold change vs veh, SLC12A2 / RFU, IBTK / Fold change vs veh, IBTK / RFU, ESF1 / Fold change vs veh, ESF1 / Fold change vs veh, TMEM50B / RFU, TAOK1 / Fold change vs veh, TAOK1 / RFU, ACBD3 / Fold change vs veh, ACBD3 / RFU, TMA16 / Fold change vs veh, TMA16 / RFU, RWDD3 / Fold change vs veh, RWDD3 / RFU, BCAT1 / Fold change vs veh, BCAT1 / RFU, EDEM3 / Fold change vs veh, EDEM3 / RFU, TMEM33 / Fold change vs veh, TMEM33 / RFU, WDR75 / Fold change vs veh, WDR75 / RFU, AHCTF1 / Fold change vs veh, AHCTF1 / RFU, TFRC / Fold change vs veh, TFRC / RFU, ZDHHC17 / Fold change vs veh, ZDHHC17 / RFU, NOM1 / Fold change vs veh, NOM1 / RFU, ARL8B / Fold change vs veh, ARL8B / RFU, ZBTB11 / Fold change vs veh, ZBTB11 / RFU, TAMM41 / Fold change vs veh, TAMM41 / RFU, KIAA1704 /// LOC100996395 / Fold change vs veh, KIAA1704 /// LOC100996395 / RFU, ING1 / Fold change vs veh, ING1 / RFU, TRMT61B / Fold change vs veh, TRMT61B / RFU, FUBP3 / Fold change vs veh, FUBP3 / RFU, TP53 / Fold change vs veh, TP53 / RFU, TNKS2 / Fold change vs veh, TNKS2 / RFU, ZFP14 / Fold change vs veh, ZFP14 / RFU, ACTR2 / Fold change vs veh, ACTR2 / RFU, PPP3R1 / Fold change vs veh, PPP3R1 / RFU, PIK3R1 / Fold change vs veh, PIK3R1 / RFU, HNRNPA1 / Fold change vs veh, HNRNPA1 / RFU, RNF170 / Fold change vs veh, RNF170 / RFU, ZNF28 / Fold change vs veh, ZNF28 / RFU, RNGTT / Fold change vs veh, RNGTT / RFU, OGT / Fold change vs veh, OGT / RFU, BRD1 / Fold change vs veh, BRD1 / RFU, MARS / Fold change vs veh, MARS / RFU, ZNF655 / Fold change vs veh, ZNF655 / RFU, FAHD1 / Fold change vs veh, FAHD1 / RFU, BDP1 / Fold change vs veh, BDP1 / RFU, LRRCC1 / Fold change vs veh, LRRCC1 / RFU, ARID1A / Fold change vs veh, ARID1A / RFU, ZNF146 / Fold change vs veh, ZNF146 / RFU, ZNF330 / Fold change vs veh, ZNF330 / RFU, GPN3 / Fold change vs veh, GPN3 / RFU, C9orf123 / Fold change vs veh, C9orf123 / RFU, N4BP2L2 / Fold change vs veh, N4BP2L2 / RFU, ARFIP1 / Fold change vs veh, ARFIP1 / RFU, FAM179B / Fold change vs veh, FAM179B / RFU, BCL10 / Fold change vs veh, BCL10 / RFU, UHRF1BP1L / Fold change vs veh, UHRF1BP1L / RFU, BET1 / Fold change vs veh, BET1 / RFU, CNOT2 / Fold change vs veh, CNOT2 / RFU, ZNF268 / Fold change vs veh, ZNF268 / Fold change vs veh, ZNF507 / RFU, DGCR2 / Fold change vs veh, DGCR2 / RFU, WDSUB1 / Fold change vs veh, WDSUB1 / Fold change vs veh, HSP90B1 /// MIR3652 / RFU, ADSS / Fold change vs veh, ADSS / RFU, GK / Fold change vs veh, GK / RFU, ZNF148 / Fold change vs veh, ZNF148 / RFU, TAF9 / Fold change vs veh, TAF9 / RFU, SLC1A5 / Fold change vs veh, SLC1A5 / RFU, SLMO2 / Fold change vs veh, SLMO2 / RFU, ABCC4 / Fold change vs veh, ABCC4 / RFU, LOC101060439 /// RAP1B / Fold change vs veh, LOC101060439 /// RAP1B / RFU, RFX7 / Fold change vs veh, RFX7 / RFU, GTPBP10 / Fold change vs veh, GTPBP10 / RFU, CNEP1R1 / Fold change vs veh, CNEP1R1 / RFU, BIVM-ERCC5 /// ERCC5 / Fold change vs veh, BIVM-ERCC5 /// ERCC5 / RFU, ILF3 / Fold change vs veh, ILF3 / RFU 11762660_at / Fold change /veh 11762660_at / RFU VCAN (11757783_s_at) / Fold change /veh VCAN (11757783_s_at) / RFU DDX43 (11728927_at) / Fold change /veh DDX43 (11728927_at) / RFU KRT8 (11758188_x_at) / Fold change /veh KRT8 (11758188_x_at) / RFU NKD1 (11759106_at) / Fold change /veh NKD1 (11759106_at) / RFU SRD5A1 (11742802_a_at) / Fold change /veh SRD5A1 (11742802_a_at) / RFU TPSAB1 /// TPSB2 (11721975_s_at) / Fold change /veh TPSAB1 /// TPSB2 (11721975_s_at) / RFU GSTM3 (11746129_a_at) / Fold change /veh GSTM3 (11746129_a_at) / RFU IL23R (11737362_x_at) / Fold change /veh IL23R (11737362_x_at) / RFU TMEM51 (11727254_a_at) / Fold change /veh TMEM51 (11727254_a_at) / RFU PIWIL2 (11732686_x_at) / Fold change /veh PIWIL2 (11732686_x_at) / RFU ORM1 (11744905_x_at) / Fold change /veh ORM1 (11744905_x_at) / RFU CCDC152 (11743942_at) / Fold change /veh CCDC152 (11743942_at) / RFU ECM1 (11717891_a_at) / Fold change /veh ECM1 (11717891_a_at) / RFU IL23R (11748794_a_at) / Fold change /veh IL23R (11748794_a_at) / RFU TNFAIP8L3 (11732012_x_at) / Fold change /veh TNFAIP8L3 (11732012_x_at) / RFU MBOAT4 (11741988_at) / Fold change /veh MBOAT4 (11741988_at) / RFU 11764193_at / Fold change /veh 11764193_at / RFU TMEM53 (11763286_at) / Fold change /veh TMEM53 (11763286_at) / RFU MAGEB2 (11727129_at) / Fold change /veh MAGEB2 (11727129_at) / RFU TMEM200A (11744735_a_at) / Fold change /veh TMEM200A (11744735_a_at) / RFU CCDC152 (11751479_a_at) / Fold change /veh CCDC152 (11751479_a_at) / RFU FAM211A (11726209_a_at) / Fold change /veh FAM211A (11726209_a_at) / RFU RGS16 (11746705_a_at) / Fold change /veh RGS16 (11746705_a_at) / RFU VCAN (11755009_s_at) / Fold change /veh VCAN (11755009_s_at) / RFU RHOB (11743442_s_at) / Fold change /veh RHOB (11743442_s_at) / RFU RGS16 (11720943_a_at) / Fold change /veh RGS16 (11720943_a_at) / RFU RGS16 (11720944_at) / Fold change /veh RGS16 (11720944_at) / RFU, VPS4B / Fold change vs veh, VPS4B / RFU, CREB1 / Fold change vs veh, CREB1 / RFU, DNAJC13 / Fold change vs veh, DNAJC13 / RFU, GNAQ / Fold change vs veh, GNAQ / RFU, CDK5R1 / Fold change vs veh, CDK5R1 / RFU, ZRANB3 / Fold change vs veh, ZRANB3 / RFU, CUL4A / Fold change vs veh, CUL4A / RFU, CCNY / Fold change vs veh, CCNY / RFU, UFL1 / Fold change vs veh, UFL1 / RFU, COG3 / Fold change vs veh, COG3 / RFU, DIAPH2 / Fold change vs veh, DIAPH2 / RFU, SKA2 / Fold change vs veh, SKA2 / RFU, AFF3 / Fold change vs veh, AFF3 / RFU, LMF1 / Fold change vs veh, LMF1 / RFU, IPO11 / Fold change vs veh, IPO11 / RFU, DFFB / Fold change vs veh, DFFB / RFU, FOXP1 / Fold change vs veh, FOXP1 / RFU, CARD8 / Fold change vs veh, CARD8 / RFU, STRN3 / Fold change vs veh, STRN3 / RFU, ADK / Fold change vs veh, ADK / RFU, RASSF2 / Fold change vs veh, RASSF2 / RFU, WIPF1 / Fold change vs veh, WIPF1 / RFU, LARP1B / Fold change vs veh, LARP1B / RFU, RASA1 / Fold change vs veh, RASA1 / RFU, RB1 / Fold change vs veh, RB1 / RFU, PPFIA1 / Fold change vs veh, PPFIA1 / RFU, MAT2A / Fold change vs veh, MAT2A / RFU, CCT5 / Fold change vs veh, CCT5 / RFU, WDR92 / Fold change vs veh, WDR92 / RFU, CUX1 / Fold change vs veh, CUX1 / RFU, TTC7A / Fold change vs veh, TTC7A / RFU, TMEM135 / Fold change vs veh, TMEM135 / RFU, DEPTOR / Fold change vs veh, DEPTOR / RFU, CPM / Fold change vs veh, CPM / RFU, DNAJB6 / Fold change vs veh, DNAJB6 / RFU, CACNA2D3 / Fold change vs veh, CACNA2D3 / RFU, DTX4 / Fold change vs veh, DTX4 / RFU, TFCP2 / Fold change vs veh, TFCP2 / RFU, GMCL1 /// GMCL1P1 / Fold change vs veh, GMCL1 /// GMCL1P1 / RFU, AEBP2 / Fold change vs veh, AEBP2 / RFU, SNHG1 /// SNORD22 /// SNORD25 /// SNORD26 /// SNORD27 /// SNORD28 /// SNORD29 /// SNORD31 / Fold change vs veh, SNHG1 /// SNORD22 /// SNORD25 /// SNORD26 /// SNORD27 /// SNORD28 /// SNORD29 /// SNORD31 / Fold change (Aza/veh), C12orf56 (ProbeSet 11735607_a_at) / Fold change (ACY-1035/veh), C12orf56 (ProbeSet 11735607_a_at) / Fold change (Aza/veh), FGFR1OP (ProbeSet 11751329_s_at) / Fold change (ACY-1035/veh), FGFR1OP (ProbeSet 11751329_s_at) / Fold change (Aza/veh), VPS36 (ProbeSet 11739960_a_at) / Fold change (ACY-1035/veh), VPS36 (ProbeSet 11739960_a_at) / RFU SYPL1 (11715823_x_at) / Fold change /veh SYPL1 (11715823_x_at) / RFU IGFBP7 (11715501_s_at) / Fold change /veh IGFBP7 (11715501_s_at) / RFU REEP3 (11722064_at) / Fold change /veh REEP3 (11722064_at) / RFU IGLL1 (11728026_x_at) / Fold change /veh IGLL1 (11728026_x_at): dose or concentration left out as unconfirmed
Settings: ProbeSet 11740528_a_at; LIST D

## Nc1ncn([C@@H]2O[C@H](CO)[C@@H](O)[C@H]2O)c(=O)n1 [azacitidine]
  RFU, AFF3: 349.86 RFU
